Data from patent US10568947B2, “Treatment of cancer using a CLL-1 chimeric antigen receptor” (Novartis AG, priority 2014, dated 2020).
Entries after “also recorded” stand apart in the source; their conditions may differ.

Legend:
NALM6-luc tumors = assay: NALM6-luc tumor growth with daily RAD001 dosing; assay type: in vivo, NSG mice; settings: daily oral RAD001 alone, 0.3, 1, 3, 10 mg/kg
Method: The NALM6 human acute lymphoblastic leukemia (ALL) cell line was developed from the peripheral blood of a patient with relapsed ALL. The cells were then tagged with firefly luciferase. These suspension cells grow in RPMI supplemented with 10% heat inactivated fetal bovine serum.
6 week old NSG (NOD.Cg-Prkdc^scidIl2rg^tm1Wjl/SzJ) mice were received from the Jackson Laboratory (stock number 005557).
(§1) NALM6-luc cells were grown and expanded in vitro in RPMI supplemented with 10% heat inactivated fetal bovine serum. The cells were then transferred to a 15 ml conical tube and washed twice with cold sterile PBS. NALM6-luc cells were then counted and resuspended at a concentration of 10×10^6 cells per milliliter of PBS. The cells were placed on ice and immediately (within one hour) implanted in the mice. NALM6-luc cells were injected intravenously via the tail vein in a 100 μl volume, for a total of 1×10^6 cells per mouse.
(§2) A concentrated micro-emulsion of 50 mg equal to 1 mg RAD001 was formulated and then resuspended in D5W (dextrose 5% in water) at the time of dosing. Mice were orally dosed daily (via oral gavage) with 200 μl of the desired doses of RAD001.

[1] = in vivo proliferation of huCAR19 CAR T cells with RAD001; settings: NALM6-luc NSG mice, daily oral RAD001, lowest doses (0.003 mg/kg)
Method: as §1
Mice were administered 5×10^6 CAR T cells 7 days after tumor implantation. Cells were partially thawed in a 37 degree Celsius water bath and then completely thawed by the addition of 1 ml of cold sterile PBS to the tube containing the cells. The thawed cells were transferred to a 15 ml falcon tube and adjusted to a final volume of 10 mls with PBS. The cells were washed twice at 1000 rpm for 10 minutes each time and then counted on a hemocytometer. T cells were then resuspended at a concentration of 50×10^6 CAR T cells per ml of cold PBS and kept on ice until the mice were dosed. […]
Based on these doses, huCAR19 CAR T cells were dosed with and without RAD001 to determine the proliferative ability of these cells. […] Mice were monitored via FACS for T cell expansion.

Nalm-6 = assay: huCART19 proliferation in co-culture with RAD001; assay type: cell-based, human; settings: 4 day co-culture with Nalm-6; 0.0032 and 0.016 nM RAD001
Text: A humanized, anti-human CD19 CAR (huCART19) lentiviral transfer vector was used to produce the genomic material packaged into VSVg pseudotyped lentiviral particles. The amino acid and nucleotide sequence of the humanized anti-human CD19 CAR (huCART19) is CAR 1, ID 104875 described in PCT publication, WO2014/153270, filed Mar. 15, 2014, and is designated SEQ ID NOs. 85 and 31 therein.
Lentiviral transfer vector DNA is mixed with the three packaging components VSVg env, gag/pol and rev in combination with lipofectamine reagent to transfect Lenti-X 293T cells. Medium is changed after 24 h and 30 h thereafter, the virus-containing media is collected, filtered and stored at −80° C. CARTs are generated by transduction of fresh or frozen naïve T cells obtained by negative magnetic selection of healthy donor blood or leukopak. […] The percentage of cells transduced (expressing the CARs on the cell surface) and the level of CAR expression (relative fluorescence intensity, Geo Mean) are determined by flow cytometric analysis between days 7 and 9. […]
To evaluate the functionality of CARTs, the T cells are thawed and counted, and viability is assessed by Cellometer. […]
For measuring the proliferation of CARTs, T cells are cultured with target cells at a ratio of 1:1. […] The number of T cells is assessed by flow cytometry using counting beads as reference.

[2] = RAD001 pharmacokinetics in blood of tumor bearing mice; assay type: in vivo, NSG mice
Method: as §2
Mice were dosed daily with RAD001 starting 7 days post tumor implantation. Dosing groups were as follows: 0.3 mg/kg, 1 mg/kg, 3 mg/kg, and 10 mg/kg. Mice were bled on days 0 and 14 following the first and last dose of RAD001, at the following time points for PK analysis: 15 minutes, 30 minutes, 1 hour, 2 hours, 4 hours, 8 hours, 12 hours, and 24 hours.

primary AML blasts = assay: chemotherapy followed by CLL1-CART cells in primary AML xenografts; assay type: in vivo, NSG-S mice; settings: two weeks after cytarabine 60 mg/kg i.p. daily days 35-39
Method: NSG mice that are additionally transgenic for stem cell factor, GM-CSF and IL-3 (NSG-S) were injected with primary AML blasts (3×10^6 via tail vain injection, day 0). After 4-6 weeks, peripheral blood (PB) was collected to confirm engraftment, which was defined as the presence of >1% circulating leukemic cells (live human CD45dim cells). AML xenografts were then treated with cytarabine (Ara-C, 60 mg/kg by intra-peritoneal injection, daily between days 35-39). Peripheral blood counts were monitored and then these xenografts were randomized to receive CLL1 directed CART cells or control untransduced T cells (1×10^5 I.V.) on day 55. Following that, serial retro-orbital bleedings were performed and absolute leukemic blast count was calculated as a measure of disease burden and the xenografts were followed up for survival.

concentration of RAD001 (blood) ([2]; 24 hours after the final dose) | concentration at 24 h ([2]; NSG, mouse, blood, oral, 24 hours after dosing, lowest dose 0.3 mg/kg, day 0 and day 14, read-out: RAD001 concentrations in the blood) [nM] | stability in the blood of tumor bearing mice ([2]; daily oral dosing, day 0 and day 14 PK) | SMILES | growth of NALM6-luc tumors (NALM6-luc tumors) | proliferation of huCAR19 CAR T cells in vivo [1] | proliferation of huCART19 with RAD001 versus without (Nalm-6) | mean fluorescence intensity (MFI) of CLL1 in leukemic cells (live huCD45dim) (primary AML blasts)
above 10 nM | > 10 | fairly stable | CO[C@H]1C[C@@H]2CC[C@@H](C)[C@@](O)(O2)C(=O)C(=O)N2CCCC[C@H]2C(=O)O[C@H]([C@H](C)C[C@@H]2CC[C@@H](OCCO)[C@H](OC)C2)CC(=O)[C@H](C)/C=C(\C)[C@@H](O)[C@@H](OC)C(=O)[C@H](C)C[C@H](C)/C=C/C=C/C=C/1C [RAD001, (1R,9S,12S,15R,16E,18R,19R,21R,23S,24E,26E,28E,30S,32S,35R)-1,18-dihydroxy-12-{(1R)-2-[(1S,3R,4R)-4-(2-hydroxyethoxy)-3-methoxycyclohexyl]-1-methylethyl}-19,30-dimethoxy-15,17,21,23,29,35-hexamethyl-11,36-dioxa-4-aza-tricyclo[30.3.1.04,9]hexatriaconta-16,24,26,28-tetraene-2,3,10,14,20-pentaone] | did not have an impact | enhanced proliferation; also recorded: enhancement in CAR T cell proliferation | proliferation was higher than observed without the addition of RAD001 | 
 |  |  | Nc1ccn([C@@H]2O[C@H](CO)[C@@H](O)[C@@H]2O)c(=O)n1 [cytarabine] |  |  |  | significant increase
